Patent US20240261288A1, “COMBINATION OF A 3-(IMIDAZOL-4-YL)-4-(AMINO)-BENZENES[…] INHIBITOR WITH AN EGFR INHIBITOR AND/OR MEK INHIBITOR FOR USE IN THE TREATMENT OF LUNG CANCER” (lkena Oncology, Inc., priority 2021, published 2024)

How the values were obtained:
[1] = system: HCC4006 cells (EGFR mutant NSCLC); test: Apoptosis induction, caspase-3/7 activation (Incucyte live-cell imaging); assay type: cell-based; settings: triple combination of T-A-32, osimertinib, and trametinib, compared with the 3 single agent treatments and the dual combination of osimertinib and trametinib
Excerpt: (§1) This study determined the ability of T-A-32 to enhance apoptosis in combination with osimertinib and trametinib in epidermal growth factor receptor (EGFR) mutant cell lines, and in combination with trametinib in Kirsten rat sarcoma viral oncogene (KRAS) or v raf murine sarcoma viral oncogene homolog B (BRAF) mutant cancer cell lines.
(§2) Three EGFR mutant cell lines (HCC4006, HCC827, and NCI-H1975), 5 KRAS mutant cell lines (A549, HCT116, Capan-2, Calu-1, and LoVo), and 1 BRAF mutant cell line (A2058) from multiple cancer indications were tested. The EGFR mutant cell lines were treated with single agent T-A-32, osimertinib (an EGFR inhibitor), or trametinib (a mitogen-activated protein kinase kinase [MEK] inhibitor); a dual combination of osimertinib and trametinib; or a triple combination of T-A-32, osimertinib, and trametinib in a 96-well plate format. The KRAS and BRAF mutant cell lines were treated with single agent T-A-32 or trametinib, or a dual combination of T-A-32 and trametinib in a 96-well plate format. Apoptosis induction was assessed by monitoring the activation of caspase-3/7 using a probe that generates bright green fluorescence upon DEVD peptide cleavage by activated caspase-3/7 as an early indicator of apoptosis every 2 hours for approximately 96 hours.
(§3) All cell lines were cultured in the recommended medium supplemented with 10% fetal bovine serum (FBS) at 37° C. in a humidified atmosphere containing 5% CO2 until they were at least 80% confluent as follows: • HCC4006, HCC827, and NCI-H1975 cells in Roswell Park Memorial Institute 1640+10% FBS • A2058 cells in Dulbecco's Modified Eagle Medium+10% FBS • HCT-116, Capan-2, and Calu-1 cells in McCoy's 5A+10% FBS • LoVo and A549 cells in F 12K+10% FBS
(§4) Cells were trypsinized, counted by an automated cell counter, and added to all wells of a 96-well plate at 3000 cells/well in 100 μL of the appropriate medium (1 plate for each cell line). The next day, compounds were diluted in DMSO to 1000× concentration. CELLEVENT Caspase-3/7 Green READYPROBE Reagent was prepared as per manufacturer's instructions by adding 1 drop of READYPROBE reagent into 1 mL of the appropriate medium. Compounds were diluted in the READYPROBE/medium mixture to 3× concentration and 50 μL were added to the cells. The plates were subsequently scanned every 2 hours using an Incucyte S3 Live-Cell Analysis System (Sartorius) for a total of 72 to 136 hours depending on the cell line. Plates were maintained at 37° C. in a humidified atmosphere containing 5% CO2 over the course of experiment.

[2] = system: HCC827 cells (EGFR mutant NSCLC); test: as above; assay type: cell-based; settings: triple combination of T-A-32, osimertinib, and trametinib, compared with the 3 single agent treatments and the dual combination of osimertinib and trametinib
Excerpt: as §1, §2, §3, §4

[3] = system: Capan 2 cells (KRAS mutant); test: as above; assay type: cell-based; settings: T-A-32 in combination with trametinib, compared with either single agent treatment alone
Excerpt: as §1, §2, §3, §4

[4] = system: Calu 1 cells (KRAS mutant); test: as above; assay type: cell-based; settings: T-A-32 in combination with trametinib, compared with either single agent treatment alone
Excerpt: as §1, §2, §3, §4

[5] = system: A2058 cells (BRAF mutant); test: as above; assay type: cell-based; settings: T-A-32 in combination with trametinib, compared with either single agent treatment alone
Excerpt: as §1, §2, §3, §4

[6] = system: LoVo human colorectal adenocarcinoma xenografts; test: LoVo KRAS G12D mutant colorectal adenocarcinoma xenograft mouse model, tumor growth; assay type: in vivo, female Nu/Nu mice; settings: T-A-32 PO 75 mg/kg QD in combination with trametinib 1.0 mg/kg; Day 28; vs vehicle control; p<0.0001
Description: (§5) This study determined the in vivo antitumor activity of T-A-32 administered in combination with trametinib, a MEK inhibitor. This combination was tested in immunodeficient nude mice (Nu/Nu) bearing LoVo human colorectal adenocarcinoma xenografts. LoVo was chosen as a xenograft model because LoVo cells harbor the KRAS G12D mutation.
(§6) Six- to eight-week-old female Nu/Nu mice were inoculated subcutaneously with 5×10^6 LoVo human colorectal adenocarcinoma cells in the right flank. Tumor growth was monitored twice per week using vernier calipers and the mean tumor volume (MTV) was calculated. When the MTV reached approximately 150-200 mm^3, approximately eight (8) days after cell inoculation, animals were randomized into treatment groups (n=10/group) and dosed orally (PO) with either vehicle control (5% DMSO+95% PEG 400 (Vehicle 1)+0.5% hydroxypropyl methyl cellulose and 0.2% Tween-80 (Vehicle 2)) or T-A-32 at 75 mg/kg, or trametinib at 1.0 mg/kg once per day (PO) for twenty-eight (28) days.
Tumor size and body weight were measured twice per week, and all treatments ended on day 28. Percent TGI was calculated on Day 28 when the control MTV reached the maximum allowable tumor volume. The mean maximum body weight change was determined for each group.

[7] = system: H1975 human non-small cell lung xenografts; test: H1975 EGFR mutant lung cancer xenograft mouse model, tumor growth; assay type: in vivo, female Nu/Nu mice; settings: for TGI (tumor growth inhibition): Day 18, vs vehicle control, p<0.001
Description: This study determined the in vivo antitumor activity of T-A-32 administered in combination with osimertinib, an EGFR inhibitor and trametinib, a MEK inhibitor. This combination was tested in immunodeficient nude mice (Nu/Nu) bearing H1975 human non-small cell lung xenografts. H1975 was chosen as a xenograft model because H1975 harbors EGFR T790M/[…]L858R mutations. T970M is well known point mutation for osimertinib resistance and L858R is also known EGFR activation mutation.
Six- to 9-week-old female Nu/Nu mice were inoculated SC with 2×10^6 H1975 human non-small cell lung tumor cells in the right flank. Tumor growth was monitored twice per week using vernier calipers and the mean tumor volume (MTV) was calculated. When the MTV reached approximately 177 mm^3, animals were randomized into treatment groups (n=10/group) and dosed orally (PO) with either vehicle control (5% DMSO+95% PEG 400 (Vehicle 1)+0.5% hydroxypropyl methyl cellulose and 0.2% Tween-80 (Vehicle 2)+1% Tween 80 (Vehicle 3)) or T-A-32 at 75 mg/kg, osimertinib at 2.5 mg/kg, or trametinib at 1 mg/kg QD for 18 days.
(§7) Treatments started on Day 0, tumor size and body weight were measured twice per week, and the study was terminated when the vehicle control tumors reached a mean of approximately 1600 mm^3. Percent TGI was calculated on Day 18 when the control MTV reached the maximum allowable tumor volume. The mean maximum body weight change was determined for each group.

[8] = system: A549 human lung cancer xenografts; test: A549 KRAS G12S mutant lung cancer xenograft mouse model, tumor growth; assay type: in vivo, female Nu/Nu mice; settings: T-A-32 PO 75 mg/kg QD in combination with trametinib 1.0 mg/kg; Day 25; vs vehicle control; p<0.0001
Description: as §5, with “A549” for “LoVo”, “lung cancer” for “colorectal adenocarcinoma”, “G12S” for “G12D”
as §6, with “A549” for “LoVo”, “lung cancer” for “colorectal adenocarcinoma”, “(n=8/group)” for “(n=10/group)”, “twenty-five (25)” for “twenty-eight (28)”
Tumor size and body weight were measured twice per week, and all treatments ended on day 25. Percent TGI was calculated on Day 25 when the control MTV reached the maximum allowable tumor volume. The mean maximum body weight change was determined for each group.

[9] = system: HCT-116 human colorectal carcinoma xenografts; test: HCT116 KRAS G13D mutant colorectal carcinoma xenograft mouse model, tumor growth; assay type: in vivo, female Nu/Nu mice; settings: T-A-32 PO 75 mg/kg QD in combination with trametinib 0.5 mg/kg; Day 14; vs vehicle control; p<0.0001
Description: This study determined the in vivo antitumor activity of T-A-32 administered in combination with trametinib, a MEK inhibitor. This combination was tested in immunodeficient nude mice (Nu/Nu) bearing HCT-116 human colorectal carcinoma xenografts. HCT116 was chosen as a xenograft model because HCT116 harbors a the KRAS G13D mutation.
as §6, with “1×10^6 HCT116” for “5×10^6 LoVo”, “carcinoma tumor” for “adenocarcinoma”, “ten (10)” for “eight (8)”, “0.5” for “1.0”, “fourteen (14)” for “twenty-eight (28)”
as §7, with “Tumor” for “Treatments started on Day 0, tumor”, “twice,” for “twice per week,”, “2000” for “1600”, “14” for “18”

[10] = system: NCI-H1975 cells (EGFR mutant NSCLC); test: Apoptosis induction, caspase-3/7 activation (Incucyte live-cell imaging); assay type: cell-based, human; settings: triple combination of T-A-32, osimertinib, and trametinib, compared with the 3 single agent treatments and the dual combination of osimertinib and trametinib
Excerpt: as §1, §2, §3, §4

A549 cells (KRAS mutant) = test: as above; assay type: cell-based, human; settings: T-A-32 in combination with trametinib, compared with either single agent treatment alone
Excerpt: as §1, §2, §3, §4

LoVo cells (KRAS mutant) = test: as above; assay type: cell-based, human; settings: T-A-32 in combination with trametinib, compared with either single agent treatment alone
Excerpt: as §1, §2, §3, §4

[11] = system: HCT-116 cells (KRAS mutant); test: as above; assay type: cell-based, human; settings: T-A-32 in combination with trametinib, compared with either single agent treatment alone
Excerpt: as §1, §2, §3, §4

Compound	apoptosis (caspase-3/7 activation) [1]	apoptosis (caspase-3/7 activation) [2]	apoptosis (caspase-3/7 activation) [3]	apoptosis (caspase-3/7 activation) [4]	apoptosis (caspase-3/7 activation) [5]	TGI (tumor growth inhibition) [6] [%]	TGI (tumor growth inhibition) ([7]; T-A-32 PO 75 mg/kg QD in combination with osimertinib (2.5 mg/kg)) [%]	TGI (tumor growth inhibition) ([7]; T-A-32 in combination with both trametinib and osimertinib, PO QD) [%]	tumor regression ([7]; triple combination of T-A-32, osimertinib, and trametinib, H1975 xenograft)	TGI (tumor growth inhibition) [8] [%]	TGI (tumor growth inhibition) [9] [%]	apoptosis (caspase-3/7 activation) [10]	apoptosis (caspase-3/7 activation) (A549 cells (KRAS mutant))	apoptosis (caspase-3/7 activation) (LoVo cells (KRAS mutant))	apoptosis (caspase-3/7 activation) [11]	TGI (tumor growth inhibition) ([7]; trametinib 1 mg/kg in combination with osimertinib 2.5 mg/kg, PO QD) [%]
CNS(=O)(=O)c1ccc(NCc2ccc(C(F)(F)F)cc2)c(-c2cn(C)cn2)c1 [T-A-32, N-methyl-3-(1-methyl-1H-imidazol-4-yl)-4-((4-(trifluoromethyl)benzyl)amino)benzenesulfonamide]	enhanced apoptosis	enhanced apoptosis	enhanced apoptosis	enhanced apoptosis	enhanced apoptosis	75	88	99	complete regressions	83	78	enhanced apoptosis	enhanced apoptosis	enhanced apoptosis	enhanced apoptosis	–
CC(=O)Nc1cccc(-n2c(=O)n(C3CC3)c(=O)c3c(Nc4ccc(I)cc4F)n(C)c(=O)c(C)c32)c1 [trametinib, reference compound]	–	–	–	–	–	–	–	–	–	–	–	–	–	–	–	71
